Patent US11110070B2 (priority 2015, dated 2021)
Entries after “also recorded” stand apart in the source; their conditions may differ.

Key:
129S6/SvEvTac mice [1] = assay: Learned helplessness (LH) shock escape; format: in vivo; conditions: ketamine 30 mg kg^−1 1 week before LH training, vs saline
Description: Experiment 4 (Pre-ketamine in learned helplessness (LH)); At 8 weeks of age, a single injection of saline or ketamine (30 mg kg^−1) was administered. One week following this injection, LH training (inescapable shock) was administered. Two weeks later, mice were administered LH testing (shock escape).
The LH paradigm was used to induce depressive-like behavior (A4). In this paradigm, mice are exposed to unpredictable and uncontrollable stress (shocks) and then develop coping deficits to deal with the inescapable shocks. We modified a previously published paradigm (A5). Briefly, the procedure was conducted in a two-chamber shuttle box (model ENV 010MD; Med Associates, St. Albans, Vt.) located within a sound-attenuated cubicle. The grid floor was made of stainless steel and connected to a shock generator. The scrambled shock generator (model ENV 414S, Med Associates) created varying electrical potential differences between bars preventing an animal from avoiding shock.
Inescapable shock (training): At approximately 9 weeks of age, mice were trained in the LH paradigm. For each shuttle box, 2 animals were administered the protocol at the same time: the central door was closed, with one animal in the chamber on each side. After a 3 min habituation period, the shock deliveries began. […]

129S6/SvEvTac mice [2] = assay: Forced swim test (FST) in social defeat (SD) model; format: in vivo
Description: Experiment 1 (Pre-ketamine in social defeat (SD)): At 8 weeks of age, a single injection of saline (0.9% NaCl) or ketamine (K) (10, 30, or 90 mg kg^−1) (Ketaset III, Ketamine HCl, Fort Dodge Animal Health, Forth Dodge, Iowa) was administered. Ketamine was prepared in physiological saline and all injections were administered intraperitoneally (i.p.) in volumes of 0.1 cc per […]. […] At 9 weeks of age, 1 week following this injection, SD was started.
24 h after the last bout of SD, a single injection of saline or ketamine (30 mg kg^−1) was administered (mice were 11 weeks old). The forced swim test (PST) was administered 2 h following the injection.
Experiment 3 (Pre-fluoxetine in SD): At 6 weeks of age, fluoxetine hydrochloride (Fix) (BioTrend Chemicals AG, B6197) was administered in the drinking water (18 mg kg^−1/day) for 3 weeks before the start of SD. Starting at 9 weeks of age, SD was then administered for 2 weeks without vehicle or Flx in the drinking water.
Adult aggressor CD-1 male mice were single-housed in Macrolon® polycarbonate resin cages (15.25 in×7.8 in×9.5 in) (Animal Care Systems, Inc., Centennial, Colo.). Male 129S6/SvEvTac mice (9 weeks of age) were subsequently placed into the resident. CD-1 mouse's cage. Three antagonistic encounters were allowed between the CD-1 mouse and the intruder. Each of these encounters typically lasted less than 5 min. Following the encounters, mice were separated by a polished stainless steel cage divider (Animal Care Systems, Inc., Centennial, Colo., P/N C79171), which allowed for olfactory and auditory communication, but limited visual or tactile contact. The partition was removed daily for 2 weeks and 3 antagonistic encounters were allowed between the mice each day. This procedure consistently yielded a submissive phenotype in the experimental intruder mice. Control (Ctrl) mice were group housed 4 to 5 per cage in Macrolon® polycarbonate resin cages without dividers.
The FST was administered as previously described (A11). Briefly, mice were placed into clear plastic buckets 20 cm in diameter and 23 cm deep filled ⅔ of the way with 22° C. water. Mice were videotaped, from the side for 6 min and were exposed to the swim test on 2 consecutive days. For the SI) experiments, scoring was performed using an automated Viewpoint Videotrack software package (http://www.viewpoint.fr/en/a/anxiety-and-depression). For the CORT experiments, automated scoring was done using the automated X'PERT EST software suite (Bioseb, Vitrolles, France). The dependent variable was immobility.

CNC1(c2ccccc2Cl)CCCCC1=O (racemic) [ketamine, (RS)-2-(2-chlorophenyl)-2-(methylamino)cyclohexanone]
latency to escape the shock (129S6/SvEvTac mice [1]; testing 2 weeks later): decreased latency to escape the shock; also recorded: significantly less
session length (all 30 trials) (129S6/SvEvTac mice [1]): significantly shorter; also recorded: significantly less
immobility time, day 2 of FST (129S6/SvEvTac mice [2]; Ctrl (group housed) mice, ketamine 30 mg kg^−1 single i.p. injection, vs Ctrl-Sal): equal levels of immobility time; also recorded: did not differ from each other
immobility time, day 2 of FST (129S6/SvEvTac mice [2]; Ctrl mice, ketamine 30 mg kg^−1 in the post-SD design): did not display different immobility time
immobility time in FST (129S6/SvEvTac mice [2]; SD mice, ketamine 10 mg kg^−1 before SD, vs SD-Sal): did not differ in immobility time
average immobility time for minutes 3 to 6 of FST (129S6/SvEvTac mice [2]; SD mice, ketamine 30 mg kg^−1 before SD, vs SD-Sal): less than the SD-Sal mice; also recorded: decreased immobility
immobility time, day 2 of FST (129S6/SvEvTac mice [2]; SD mice, ketamine 30 mg kg^−1 single injection 1 week before 2 weeks of SD, vs SD-Sal): significantly decreased immobility time; also recorded: significantly less immobility time
immobility time in FST (129S6/SvEvTac mice [2]; SD mice, ketamine 90 mg kg^−1 before SD, vs SD-Sal): did not differ in immobility time
persistence of ketamine-induced resilience post-injection (129S6/SvEvTac mice [2]; SD model): at least 3 weeks
dose found to be effective in the SD paradigm (129S6/SvEvTac mice [2]; doses tested 10, 30, 90 mg kg^−1): 30 mg/kg
immobility time, minutes 3 to 6 averaged (129S6/SvEvTac mice [2]; ketamine given after SD): did not decrease immobility time
